Experimental findings from US20250136556A1, “NOVEL MODULATORS OF THE ARYL HYDROCARBON RECEPTOR AND METHODS OF USE THEREOF” (Allianthera (Suzhou) Biopharmaceutical Co., Ltd., priority 2021, published 2025) are described below.

Like-named read-outs stand apart in the source and are kept apart here. A value given as a limit tells only on which side of the number the result lay.

In series [1] the target is T1, Human Aryl Hydrocarbon Receptor (AHR) (Homo sapiens, UniProt P35869).
T1 construct: purchased INDIGO Bioscience IB06001-32; host or cells: AHR Reporter Cell (proprietary kit cells)
T1 sequence (P35869 11-848): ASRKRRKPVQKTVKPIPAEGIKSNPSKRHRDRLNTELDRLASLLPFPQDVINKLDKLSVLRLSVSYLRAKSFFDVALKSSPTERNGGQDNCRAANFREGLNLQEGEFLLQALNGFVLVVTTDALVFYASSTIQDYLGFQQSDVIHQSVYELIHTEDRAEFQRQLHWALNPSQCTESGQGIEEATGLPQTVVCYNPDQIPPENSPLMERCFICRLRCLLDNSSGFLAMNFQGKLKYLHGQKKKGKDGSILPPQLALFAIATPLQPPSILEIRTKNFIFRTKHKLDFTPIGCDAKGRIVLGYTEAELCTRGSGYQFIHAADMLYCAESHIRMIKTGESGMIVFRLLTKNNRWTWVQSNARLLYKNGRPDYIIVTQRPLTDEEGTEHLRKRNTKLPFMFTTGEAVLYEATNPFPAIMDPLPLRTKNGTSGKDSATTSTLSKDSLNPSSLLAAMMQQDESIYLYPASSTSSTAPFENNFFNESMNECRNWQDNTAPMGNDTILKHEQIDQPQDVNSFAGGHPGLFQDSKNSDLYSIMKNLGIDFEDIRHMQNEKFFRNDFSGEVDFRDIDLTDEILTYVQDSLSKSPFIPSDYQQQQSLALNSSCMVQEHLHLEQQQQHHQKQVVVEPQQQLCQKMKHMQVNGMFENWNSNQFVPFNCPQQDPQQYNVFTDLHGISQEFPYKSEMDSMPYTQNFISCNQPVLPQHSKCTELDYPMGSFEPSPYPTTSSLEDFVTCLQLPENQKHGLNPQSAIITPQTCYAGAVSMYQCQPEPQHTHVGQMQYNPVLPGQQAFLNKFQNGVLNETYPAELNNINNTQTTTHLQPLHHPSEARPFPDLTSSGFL
Put plainly: AHR agonist reporter assay in human cell line (INDIGO luciferase reporter).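 On all read-outs here: firefly luciferase luminescence read on a plate reader, values normalized against positive and negative controls.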 It is filed as cell-based. The following applies: reporter cells; for EC50: 24 hours incubation; for AHR % activation to Tapinarof at 1 μM: 24 hours, value in brackets.
Method: The AHR reporter assay was performed following the protocol of the Human Aryl Hydrocarbon Receptor (AHR) Reporter Assay System (INDIGO Bioscience, #IB06001-32). AHR Reporter Cell was thawed and pre-incubated in Cell Recovery Medium (CRM) for 6 hours. […] Following 24 hours incubation, the media was removed and Luciferase Detection Reagent (LDR) added. The firefly luciferase activity was quantified using a plate reader. Results were normalized by positive and negative controls.

Series [2] relates to Human Nuclear Factor (erythroid-derived2)-like 2 (Nrf2). Put plainly: Nrf2 transcription factor activity reporter assay in human cell line (INDIGO luciferase reporter). The following applies: reporter cells; for EC50: 24 hours incubation; for Nrf2 % activation to Tapinarof at 9 μM: 24 hours, value in brackets. It counts as cell-based. As to the method: The Nrf2 reporter assay was performed following the protocol of the Human Nuclear Factor (erythroid-derived2)-like 2 (Nrf2) Reporter Assay System (INDIGO Bioscience, #IB10001). Nrf2 Reporter Cell was thawed and pre-incubated in Cell Recovery Medium (CRM) for 6 hours. The media was then removed and the cells were incubated with Compound Screening Medium (CSM) in the absence (negative control) or presence of increasing concentrations of test compounds (typical dilution: 128 pM, 640 pM, 3.2 nM, 16 nM, 80 nM, 400 nM, […] in duplicates) for 24 hours. For positive control, cells activated with CDDO or Nrf2 agonists described in literature. Following 24 hours incubation, the media was removed and Luciferase Detection Reagent (LDR) added. The firefly luciferase activity was quantified using a plate reader. Results were normalized by positive and negative controls.
(Reporter assays use an easily measured gene product as a stand-in for the process of interest.)

In series [3] the test system is IL-6 gene expression in human primary M1 macrophage cells. As to the kind of experiment: AHR-regulated IL-6 inhibition in human primary M1 macrophage (qPCR). It is filed as cell-based. Particulars: LPS/IFN-gamma/GM-CSF, 24 hours; for IC50: read-out: M1 assay IL6 -IC50. On the procedure:
Human M1 macrophage was differentiated from PBMC. Briefly, at day 1, monocytes were isolated from human PBMC using EasySe Human Monocyte Enrichment Kit without CD16 Depletion (Stemcell, 19058). The isolated monocytes were seeded at 3×10^7 cells in 15 cm dish using 30 ml medium containing 50 ng/ml GM-CSF (R&D, 215-GM-050/CF). At day 5, 30 ml fresh medium containing 50 ng/ml GM-CSF was added. At day 8, 1.5×10^5 cells/well were re-seeded into 24 wells plate, and 500 ul medium containing 10 ng/ml LPS (Sigma, L7770), 20 ng/ml IFN-gamma (PeproTech, 300-02), 50 ng/ml GM-CSF and the test compounds was added. […] The IL-6 expression was inhibited with AHR agonists described in literature as the positive inhibition control, alternatively the un-stimulated cells were used as the negative inhibition control. […] The primers for human GAPDH (F: […]; R: […]) and human IL-6 (F: […]; R: […]) were used to analyze fold expression of IL-6 of GAPDH by quantitative PCR.
Background: Real-time PCR tracks product formation cycle by cycle.

Series [4] concerns AHR-regulated gene CYP1A1. Put plainly: AHR-regulated CYP1A1 expression in human monocytic U937 cell line (qPCR). The following applies: U937 cells, 16 hours, CYP1A1 relative to GAPDH.
Method: To evaluate the AHR agonist activity of the test compounds, quantitative PCR analysis was used to determine expression level of the AHR-regulated gene CYP1A1 in a human monocytic U937 cell line. U937 cells were seeded at a concentration of 5×10^5 cells/well in 200 μL of growth medium in 96-well cell culture microplates. CYP1A1 expression was induced with AHR agonists described in literature as a positive control or the test compounds for 16 hours. […] Unstimulated cells were used as the negative control. Taqman probes for human CYP1A1 (Hs01054797_g1) and human GAPDH (Hs02786624_g1) were used to analyze fold expression of CYP1A1 of GAPDH.
Where [5] appears, read: first line of cell, read-out: AHR reEC50.
The mark [6] stands for this setting: second line of cell, read-out: AHR abEC50.
Setting [7] is: first line of cell, read-out: Nrf2 reEC50.
The mark [8] stands for this setting: second line of cell, read-out: Nrf2 EC50, second line of cell (head does not name it).

For orientation: IC50 means the concentration needed to halve the response being measured. As to `CC(C)c1ncc(/C=C/c2ccccc2)cc1O` [Compound 103, (E)-2-isopropyl-5-styrylpyridine-3-ol], the EC50 stood at 166 nM in series [1] (setting [5]), 241 nM in series [1] (setting [6]), 70.8 nM in series [2] (setting [7]) and 149 nM in series [2] (setting [8]). Besides, the “AHR % activation to Tapinarof at 1 μM” value in series [1] was determined as 69.5%. For the same molecule, the “Nrf2 % activation to Tapinarof at 9 μM” value in series [2] stood at 78.8%. Besides, the “M1 assay IL6 -max % inhibition (% to no treatment)” value in series [3] stood at 84.90%. Also, the IC50 in series [3] was 92.6 nM. The “CYP1A1 (% activation to Tapinarof at 1 μM)” value in series [4] was 34.0%.
As for `CC(C)c1c(O)cc(-c2cc3ccccc3cn2)cc1O` [Compound 46], the EC50 in series [1] (setting [5]) was determined as 72.7 nM; in series [1] (setting [6]) it was 39 nM; in series [2] (setting [7]) it was 16.3 nM; in series [2] (setting [8]), 166 nM. In addition, the “AHR % activation to Tapinarof at 1 μM” value in series [1] came out at 95.8%. Besides, in series [2], the “Nrf2 % activation to Tapinarof at 9 μM” value turned out to be 69.3%. Moreover, in series [4], the “CYP1A1 (% activation to Tapinarof at 1 μM)” value was 95.3%.
As for `CC(C)c1c(O)cc(/C=C/c2ccccc2)cc1O` [Tapinarof, reference compound], the “AHR % activation to Tapinarof at 1 μM” value in series [1] is reported as 100%. Also, in series [2] (setting [7]), the EC50 is 55 to 75 nM. Besides, the “CYP1A1 (% activation to Tapinarof at 1 μM)” value in series [4] is listed as 100%.
As to `CC(C)c1c(O)cc(-c2cnc3ccccc3c2)cc1O` [Compound 48], the EC50 in series [1] (setting [5]) is 64.3 nM; in series [1] (setting [6]) it was 57.5 nM; in series [2] (setting [7]), 14.5 nM; in series [2] (setting [8]) it was 29.6 nM. Also, the “AHR % activation to Tapinarof at 1 μM” value in series [1] is 69.5%. Further, the “Nrf2 % activation to Tapinarof at 9 μM” value in series [2] is on record as 84.4%. In series [3], the “M1 assay IL6 -max % inhibition (% to no treatment)” value is 89.60%. For the same molecule, the IC50 in series [3] turned out to be 3 nM. Also, the “CYP1A1 (% activation to Tapinarof at 1 μM)” value in series [4] was determined as 78.4%.
On to `CC(C)c1ncc(-c2nc3ccccc3o2)cc1O` [Compound 100], for which the EC50 in series [1] (setting [5]) was 21.9 nM; in series [1] (setting [6]) it was more than 1000 nM; in series [2] (setting [7]), 200 nM; in series [2] (setting [8]) it was 890 nM. Moreover, the “AHR % activation to Tapinarof at 1 μM” value in series [1] is 49.7%. Further, in series [2], the “Nrf2 % activation to Tapinarof at 9 μM” value came out at 62.3%. The “CYP1A1 (% activation to Tapinarof at 1 μM)” value in series [4] turned out to be 90.5%.
On to `CC(C)c1ncc(-c2ccc3ccccc3n2)cc1N` [Compound 119, 2-isopropyl-5-(quinolin-2-yl)pyridin-3-amine], for which the figures for the EC50 in series [1] (setting [5]), in series [2] (setting [7]) and in series [2] (setting [8]) were 66 nM, 125 nM and 129 nM, respectively. Also, the “AHR % activation to Tapinarof at 1 μM” value in series [1] is given as 16.4%. Moreover, the “Nrf2 % activation to Tapinarof at 9 μM” value in series [2] was found to be 97.8%. Besides, the “CYP1A1 (% activation to Tapinarof at 1 μM)” value in series [4] was 0.4%.
Consider `COc1cc(-c2nc3ccccc3o2)cc(O)c1C(C)C` [Compound 122, 5-(benzo[d]oxazol-2-yl)-2-isopropyl-3-methoxyphenol], for which the EC50 in series [1] (setting [5]) came out at 254 nM; in series [1] (setting [6]) it was 395 nM; in series [2] (setting [7]), 2640 nM. For the same molecule, the “AHR % activation to Tapinarof at 1 μM” value in series [1] came to 64.4%. Moreover, in series [2], the “Nrf2 % activation to Tapinarof at 9 μM” value stood at 25.7%. In addition, the “CYP1A1 (% activation to Tapinarof at 1 μM)” value in series [4] came to 39.3%.
On to `CC(C)c1ncc(-c2ccc3ccccc3n2)cc1O` [Compound 98], for which the EC50 amounted to 176000 nM in series [1] (setting [5]), 403 nM in series [1] (setting [6]), 40 nM in series [2] (setting [7]) and 139 nM in series [2] (setting [8]). Besides, the “AHR % activation to Tapinarof at 1 μM” value in series [1] is 71.2%. Further, the “Nrf2 % activation to Tapinarof at 9 μM” value in series [2] was determined as 83.6%. Further, the “CYP1A1 (% activation to Tapinarof at 1 μM)” value in series [4] is reported as 83.6%.
Regarding `CC(C)c1c(O)cc(-c2nc3ccccc3o2)cc1O` [Compound 49], the EC50 in series [1] (setting [5]) was determined as 38100 nM; in series [1] (setting [6]), 53.4 nM; in series [2] (setting [7]), 34.9 nM; in series [2] (setting [8]), 73.7 nM. In series [1], the “AHR % activation to Tapinarof at 1 μM” value was 104.6%. Further, in series [2], the “Nrf2 % activation to Tapinarof at 9 μM” value was 69.7%. In addition, the “M1 assay IL6 -max % inhibition (% to no treatment)” value in series [3] worked out at 90.30%. Moreover, the IC50 in series [3] is 3.14 nM. Further, in series [4], the “CYP1A1 (% activation to Tapinarof at 1 μM)” value is 95.6%.
With `CC(C)c1ncc(-c2cc3ccccc3cn2)cc1O` [Compound 97], the EC50 was determined as 1620 nM in series [1] (setting [5]), 569 nM in series [1] (setting [6]), 249 nM in series [2] (setting [7]) and 501 nM in series [2] (setting [8]). The “AHR % activation to Tapinarof at 1 μM” value in series [1] was found to be 62.6%. The “Nrf2 % activation to Tapinarof at 9 μM” value in series [2] was 67.2%. Further, the “CYP1A1 (% activation to Tapinarof at 1 μM)” value in series [4] was 78.9%.
